Read-outs that look alike come from different tables or passages of the source.
Tests used:
[1] = Cytotoxicity, acid phosphatase (ACP) assay; format: cell-based; details: African green monkey
Protocol: (§1) Cytotoxicity of the compounds was determined using the acid phosphatase (ACP) assay. Vero E6 cells were seeded onto a 96-well culture plate at a concentration of 2 × 10^4 cells per well. Next day, the medium was removed, and each well was washed once with PBS before adding DMEM containing 2% FBS and different concentrations of test compounds. After 3 days of incubation at 37 °C, the medium was removed, and each well was washed once with PBS. Next, a buffer containing 0.1 M sodium acetate (pH = 5.0), 0.1% Triton X-100, and 5 mM p-nitrophenyl phosphate was added. After incubating at 37 °C for 30 min, 1 N NaOH was added to stop the reaction. The absorbance was measured using an ELISA reader (VERSAmax, Molecular Devices, Sunnyvale, CA) at a wavelength of 405 nm. The percentage of cell viability was calculated by using the following formula: Viability % = [ (At/As) × 100]%, where At and As represent the absorbance of the test compound and the solvent control, respectively. […] For each compound, the measurements were repeated at least 3 times to determine the averaged CC50 values and standard deviation.

furin = target: T1, furin (Homo sapiens, UniProt P09958); test: Furin inhibition (Furin Protease Assay Kit, fluorescence); format: biochemical
T1 construct: purchased BPS Bioscience 78040
Protocol: Following the protocol as described in ref ([35]) a commercial Furin Protease Assay Kit (BPS Bioscience, catalog#78040) was employed to assay furin activities. It was conducted in 20 μL reaction mixtures on a 384-well plate (PerkinElmer) comprising 0.25 ng/μL furin, 2 μM substrate, and different concentrations of inhibitors in the assay buffer with 1% DMSO from the stock solutions of compounds. Fluorescence intensity was monitored at excitation/emission wavelengths of 380/460 nm. The concentration-dependent inhibition curves of furin were fitted with the equation A(I) = A(0) x {1–[I/(I + IC50)]} using GraphPad Prism (v.9.4.0). All of the measurements were performed in triplicate to determine the averaged IC50 values and the standard deviations.

[2] = test system: SARS-CoV-2 Omicron BA.5 (NTU280); test: Antiviral plaque reduction assay, Omicron BA.5 strain, Vero E6 cells; format: cell-based
SARS-CoV-2 3CL^pro = SARS-CoV-2 3CL^pro (Severe acute respiratory syndrome coronavirus 2, UniProt P0DTD1); test: 3CLpro inhibition (fluorogenic peptide); format: biochemical
[3] = test system: SARS-CoV-2 Delta virus (NTU92); test: microbe, parasite or virus in culture; format: cell-based
TMPRSS2 = target: T2, TMPRSS2 (Homo sapiens, UniProt O15393); test: TMPRSS2 inhibition (Boc-Gln-Ala-Arg-AMC fluorogenic substrate); format: biochemical
T2 construct: The recombinant TMPRSS2 ectodomain (residues 109–492), excluding the transmembrane domain; His tag; made in house; host or cells: ExpiSf9 insect cells (baculovirus)

SARS-CoV-2 RdRp = SARS-CoV-2 RdRp (Severe acute respiratory syndrome coronavirus 2, UniProt P0DTD1); test: RdRp inhibition (nsp12/nsp7L8/nsp8 complex, ProFoldin kit); format: biochemical; details: triplicate
cathepsin L = target: T3, cathepsin L (Homo sapiens, UniProt P07711); test: Cathepsin L inhibition (Cathepsin L Protease Assay Kit, fluorescence); format: biochemical
T3 construct: purchased Abcam
Protocol: Cathepsin L activity was determined using a commercial Cathepsin L Protease Assay Kit (Abcam, U.K.) in 20 μL reaction mixtures on a 384-well plate (PerkinElmer). Different concentrations of each inhibitor were added to the assay buffer supplied with dithiothreitol (DTT) in the kit, also containing 1% DMSO from the stock solutions of inhibitors. The fluorescence intensity was monitored for 30 min at excitation and emission wavelengths of 380/460 nm. The concentration-dependent inhibition curves of cathepsin L were fitted with the equation A(I) = A(0) x {1–[I/(I + IC50)]} using GraphPad Prism (v.9.4.0). The measurements were performed in triplicate to generate the averaged IC50 values and the standard deviations.

SARS-CoV-2 PL^pro = SARS-CoV-2 PL^pro (Severe acute respiratory syndrome coronavirus 2, UniProt P0DTD1); test: PLpro inhibition (proteolytic, deubiquitinating, deISGylation activities); format: biochemical
wild-type SARS-CoV-2 = test: microbe, parasite or virus in culture; format: cell-based; details: Severe acute respiratory syndrome coronavirus 2, read-out: EC50 wild-type strain
recombinant ACE2 and RBD = details: at 60 μM; cited from earlier work
Vero E6 cells = test: Cytotoxicity, acid phosphatase (ACP) assay; format: cell-based; details: Vero E6, 3 days
Protocol: as §1

[4] = Severe acute respiratory syndrome coronavirus 2, Vero C1008, Omicron BA.5, plaque reduction, Vero E6, read-out: EC50 ο BA.5 (converted)
[5] = 35 nM 3CL^pro, 6 μM substrate, read-out: IC50 3CL^pro
[6] = Severe acute respiratory syndrome coronavirus 2, Vero C1008, Delta strain, plaque reduction, Vero E6, entry treatment, read-out: EC50 δ
[7] = 1.3 nM TMPRSS2, 10 μM substrate, triplicate
[8] = one entry for PL^pro, the three activities not told apart, read-out: IC50 PL^pro
[9] = substrate ISG15-AMC, third of three values, read-out: IC50 PL^pro, deISGylation activity
[10] = substrate Ub-AMC, second of three values, read-out: IC50 PL^pro, deubiquitinating activity
[11] = substrate Z-Arg-Leu-Arg-Gly-Gly-AMC, first of three values, read-out: IC50 PL^pro, proteolytic activity

T2 sequence (O15393 109-492 S251D/R252D/Q253D/S254D/R255K limits assumed): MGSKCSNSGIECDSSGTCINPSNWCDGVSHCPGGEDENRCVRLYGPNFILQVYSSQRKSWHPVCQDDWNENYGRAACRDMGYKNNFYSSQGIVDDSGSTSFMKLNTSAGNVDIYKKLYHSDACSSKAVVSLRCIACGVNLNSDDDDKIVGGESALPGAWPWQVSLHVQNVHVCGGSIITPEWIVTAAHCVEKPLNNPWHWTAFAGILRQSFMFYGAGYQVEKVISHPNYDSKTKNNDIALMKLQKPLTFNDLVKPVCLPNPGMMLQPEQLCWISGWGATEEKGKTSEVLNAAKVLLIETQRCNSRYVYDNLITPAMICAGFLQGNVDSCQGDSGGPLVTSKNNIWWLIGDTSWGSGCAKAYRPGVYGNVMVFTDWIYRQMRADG
T3 sequence (P07711 114-333): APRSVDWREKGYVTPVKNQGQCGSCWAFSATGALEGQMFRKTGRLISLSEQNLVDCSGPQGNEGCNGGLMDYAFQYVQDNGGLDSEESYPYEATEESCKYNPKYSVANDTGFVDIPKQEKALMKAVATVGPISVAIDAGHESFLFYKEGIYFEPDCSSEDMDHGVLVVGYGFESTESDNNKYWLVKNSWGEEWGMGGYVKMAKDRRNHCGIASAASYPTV
T1 sequence (P09958 108-794): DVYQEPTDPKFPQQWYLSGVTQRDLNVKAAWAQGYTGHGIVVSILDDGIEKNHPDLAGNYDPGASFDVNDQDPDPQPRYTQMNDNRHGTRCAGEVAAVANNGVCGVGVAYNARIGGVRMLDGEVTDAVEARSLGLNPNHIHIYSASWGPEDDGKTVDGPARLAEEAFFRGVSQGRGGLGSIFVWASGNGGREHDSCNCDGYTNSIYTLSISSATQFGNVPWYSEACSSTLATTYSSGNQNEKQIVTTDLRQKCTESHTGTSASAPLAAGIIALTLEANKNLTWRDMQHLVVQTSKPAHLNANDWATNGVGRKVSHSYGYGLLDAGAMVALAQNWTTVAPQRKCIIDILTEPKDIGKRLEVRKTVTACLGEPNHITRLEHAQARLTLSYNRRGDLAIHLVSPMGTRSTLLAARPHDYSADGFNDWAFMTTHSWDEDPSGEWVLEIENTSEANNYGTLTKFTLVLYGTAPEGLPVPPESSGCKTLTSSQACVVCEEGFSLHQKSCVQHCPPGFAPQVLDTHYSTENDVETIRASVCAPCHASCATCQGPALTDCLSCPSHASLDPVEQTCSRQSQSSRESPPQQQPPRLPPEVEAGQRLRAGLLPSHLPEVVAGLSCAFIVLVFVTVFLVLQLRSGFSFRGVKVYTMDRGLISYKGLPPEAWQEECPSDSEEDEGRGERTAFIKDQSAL

Molecule | CC50 at 3 days [1] | IC50 (furin; triplicate, mean ± SD) | EC50 [2, 4] | IC50 (SARS-CoV-2 3CL^pro; [5]) | EC50 [3, 6] | IC50 (TMPRSS2; [7]) | IC50 (SARS-CoV-2 RdRp) | IC50 (cathepsin L; triplicate, mean ± SD) | IC50 (SARS-CoV-2 PL^pro; [8]) | IC50 (SARS-CoV-2 PL^pro; [9]) | IC50 (SARS-CoV-2 PL^pro; [10]) | IC50 (SARS-CoV-2 PL^pro; [11]) | other results
O=C(O[C@@H]1Cc2c(O)cc(O)cc2O[C@@H]1c1cc(O)c(O)c2c(=O)c(O)cc([C@H]3Oc4cc(O)cc(O)c4C[C@H]3O)cc12)c1cc(O)c(O)c(O)c1 [theaflavin-3′-gallate] | 69.9 ± 12.9 µM | 58.5 ± 6.4 µM | 0.4 µM | 6.7 ± 0.8 µM | 0.8 ± 0.1 µM | 6.2 ± 0.6 µM | 23.2 ± 0.4 µM | 51.1 ± 2.2 µM | > 100 µM |  |  |  | 
O=C(O[C@@H]1Cc2c(O)cc(O)cc2O[C@@H]1c1cc(O)c(=O)c2c(O)c(O)cc([C@H]3Oc4cc(O)cc(O)c4C[C@H]3O)c2c1)c1cc(O)c(O)c(O)c1 [theaflavin-3-gallate] | > 100 µM | 36.7 ± 5.7 µM | 0.4 µM | 8.8 ± 0.8 µM | 0.4 µM | 48.7 ± 3 µM | > 100 µM | > 100 µM | > 100 µM |  |  |  | 
O=C(O[C@@H]1Cc2c(O)cc(O)cc2O[C@@H]1c1cc(O)c(=O)c2c(O)c(O)cc([C@H]3Oc4cc(O)cc(O)c4C[C@H]3OC(=O)c3cc(O)c(O)c(O)c3)c2c1)c1cc(O)c(O)c(O)c1 [TF3, theaflavin-3,3′-digallate] | > 100 µM |  |  |  |  |  |  |  |  |  |  |  | EC50 (wild-type SARS-CoV-2): 0.3 µM; EC50 ([2]; Severe acute respiratory syndrome coronavirus 2, Vero C1008, read-out: EC50 ο BA.5): 0.2 µM; EC50 ([3]; Severe acute respiratory syndrome coronavirus 2, Vero C1008): 0.2 µM; inhibition of the interaction between recombinant ACE2 and RBD (recombinant ACE2 and RBD): effectively inhibiting
O=C(O[C@@H]1Cc2c(O)cc(O)cc2O[C@@H]1c1cc(O)c(=O)c2c(O)c(O)c(O)cc2c1)c1cc(O)c(O)c(O)c1 [epitheaflagallin-3-O-gallate] | 109 ± 45.3 µM | 55 ± 6.5 µM | 0.6 µM | 31.2 ± 2.6 µM | 0.5 ± 0.1 µM | 35.3 ± 2.7 µM | > 100 µM | > 100 µM | > 100 µM |  |  |  | 
O=c1c(O)cc([C@H]2Oc3cc(O)cc(O)c3C[C@H]2O)cc2c([C@H]3Oc4cc(O)cc(O)c4C[C@H]3O)cc(O)c(O)c12 [theaflavin] | 66.4 ± 3.2 µM | > 100 µM | 2.2 µM | 16.1 ± 2.5 µM | 7.4 ± 0.1 µM | > 100 µM | 40.2 ± 2.3 µM | 11.1 ± 1.1 µM |  | 11.2 ± 1.3 µM | 10.6 ± 0.9 µM | 9.9 ± 0.9 µM | 
Oc1cc(O)c2c(c1)OC(c1ccc(O)c(O)c1)C(O)C2 (stereo not shown) [catechin] |  | > 100 µM | > 10 µM |  | > 10 µM | > 100 µM | > 100 µM | > 100 µM |  | 17.8 ± 2.2 µM | 24.6 ± 3.3 µM | 18.7 ± 3.5 µM | CC50 at 3 days ([1]; Vero E6 cells, Vero E6, 3 days, read-out: CC50): 107 µM; IC50 (SARS-CoV-2 3CL^pro): > 100 µM; inhibition against 3CL^pro (SARS-CoV-2 3CL^pro; in words): no inhibition; inhibition of Delta SARS-CoV-2 ([3]; at 10 μM): did not inhibit
proanthocyanidin |  |  |  |  |  |  | 23.4 ± 1.3 µM |  |  | 7.3 ± 0.6 µM | 3.3 ± 0.4 µM | 2.4 ± 0.3 µM | CC50 (Vero E6 cells): > 100 µM; IC50 (furin): > 100 µM; EC50 ([2]; Omicron BA.5, plaque reduction, Vero E6, read-out: EC50 ο BA.5 (converted)): 0.2 µM; IC50 (SARS-CoV-2 3CL^pro; read-out: IC50 3CL^pro): 18.4 ± 1.1 µM; EC50 ([3]; Delta strain, plaque reduction, Vero E6, entry treatment, read-out: EC50 δ): 0.5 ± 0.1 µM; IC50 (TMPRSS2): 47 ± 4.6 µM; IC50 (cathepsin L): > 100 µM
